Assay results reported in patent publication US10857150B2, “Use of sanglifehrin macrocyclic analogues as anticancer compounds” (NEUROVIVE PHARMACEUTICAL AB, priority 2016, dated 2020).

What was measured:
LIXC-002 = experiment: 7-day proliferation assay, Calcein AM staining; format: cell-based, human; conditions: Example 5, one experiment
Procedure: (§1) The cells were seeded in a 96-well plate, test compound or DMSO was added and the plate was incubated for additional four days or 7 days (Calcein AM assay). Viable cell counts were determined after detachment by treatment with trypsin either by trypan blue exclusion, flow cytometry, indirectly by measuring ATP content by addition of an ATP measuring reagent (CellTiter Glo), or Calcein AM, prepared according to the instruction of the manufacturer directly.
(§2) XLfit software ((Fit model: Dose response one site/^F(x)[fit=(A+((B−A)/(1+((C/x)^D))))]) for curve fitting and IC50 calculation) was used for curve fitting and IC50 calculation.
(§3) In vitro evaluation of a sanglifehrin macrocyclic analogue (1) for anticancer activity against human hepatocyte cancer cell lines in comparison with NV556 (10) a 7-day proliferation assay. The cell numbers were determined by Calcein AM staining as described in the methods section. Data are from one experiment with each cell line testing duplicate samples of 9 concentrations of each compound. Both compounds were included in each experiment.

LIXC-086 = experiment: 7-day proliferation assay, Calcein AM staining; format: cell-based, human
Procedure: as §1, §2, §3
as §3, with “the cyclophilin inhibitor alisporivir and the kinase inhibitor sorafenib in” for “NV556 (10)”, “one single” for “one”, “or means of two independent experiments” for “with each cell line”, “All three” for “Both”

LIXC-066 = experiment: 7-day proliferation assay, Calcein AM staining; format: cell-based, human
Procedure: as §1, §2, §3
as §3, with “the cyclophilin inhibitor alisporivir and the kinase inhibitor sorafenib in” for “NV556 (10)”, “one single” for “one”, “or means of two independent experiments” for “with each cell line”, “All three” for “Both”

LIXC-006 = experiment: 7-day proliferation assay, Calcein AM staining; format: cell-based, human
Procedure: as §1, §2, §3
as §3, with “the cyclophilin inhibitor alisporivir and the kinase inhibitor sorafenib in” for “NV556 (10)”, “one single” for “one”, “or means of two independent experiments” for “with each cell line”, “All three” for “Both”

Hep3B2.1-7-Luc = experiment: 7-day proliferation assay, Calcein AM staining; format: cell-based, human
Procedure: as §1, §2, §3
as §3, with “the cyclophilin inhibitor alisporivir and the kinase inhibitor sorafenib in” for “NV556 (10)”, “one single” for “one”, “or means of two independent experiments” for “with each cell line”, “All three” for “Both”

[1] = tested on: SK-Hep-1 tumour cell line; experiment: combined anticancer activity, monolayer proliferation assay; format: cell-based, human; conditions: over certain concentration ranges
Procedure: as §1
In vitro evaluation of the combined anticancer activity of a sanglifehrin macrocyclic analogue with the anticancer agents sorafenib or doxorubicin against the SK-Hep-1 tumour cell line in a monolayer proliferation assay was carried out as described in the general methods above.

A549 = experiment: monolayer proliferation assay, human tumour cell line panel; format: cell-based; conditions: means of two experiments, 3 nM-25 μM
Procedure: as §1
(§4) Percentage inhibition in the ATP test was calculated by the formula described below: Growth inhibition %: 100−100×(Experimental−Blank)/(DMSO−Blank)
as §2
(§5) In vitro evaluation of compounds for anticancer activity in a panel of human tumour cell lines in a monolayer proliferation assay were carried out at Shanghai Chempartner.
(§6) In vitro evaluation of a sanglifehrin macrocyclic analogue (NV556) for anticancer activity in a panel of 11 human tumour cell lines in a monolayer proliferation assay was carried out as described in the general methods above. Data are means from two independent experiments testing 10 concentrations (3 nM-25 μM) in duplicate.

A375 = experiment: as above; format: cell-based; conditions: means of two experiments, 10 concentrations 3 nM-25 μM
Procedure: as §1, §4, §2, §5, §6

RPMI 8226 = experiment: as above; format: cell-based; conditions: means of two experiments, 3 nM-25 μM
Procedure: as §1, §4, §2, §5, §6

PANC-1 = experiment: as above; format: cell-based; conditions: means of two experiments, 3 nM-25 μM
Procedure: as §1, §4, §2, §5, §6

U251 = experiment: as above; format: cell-based; conditions: means of two experiments, 3 nM-25 μM
Procedure: as §1, §4, §2, §5, §6

HT-29 = experiment: as above; format: cell-based; conditions: means of two experiments, 3 nM-25 μM
Procedure: as §1, §4, §2, §5, §6

A2780 = experiment: as above; format: cell-based; conditions: means of two experiments, 3 nM-25 μM
Procedure: as §1, §4, §2, §5, §6

SK-Hep-1 = experiment: as above; format: cell-based; conditions: means of two experiments, 3 nM-25 μM
Procedure: as §1, §4, §2, §5, §6

MDA-MB-231 = experiment: as above; format: cell-based; conditions: means of two experiments, 3 nM-25 μM
Procedure: as §1, §4, §2, §5, §6

PC-3 = experiment: as above; format: cell-based; conditions: means of two experiments, 3 nM-25 μM
Procedure: as §1, §4, §2, §5, §6

Huh-7 = experiment: as above; format: cell-based; conditions: means of two experiments, 3 nM-25 μM
Procedure: as §1, §4, §2, §5, §6

HepG2 [2] = experiment: as above; format: cell-based; conditions: means of two experiments, 3 nM-25 μM
Procedure: as §1, §4, §2, §5, §6

HCT 116 = experiment: as above; format: cell-based; conditions: means of two experiments, 3 nM-25 μM
Procedure: as §1, §4, §2, §5, §6

LIXC-012 = experiment: 7-day proliferation assay, Calcein AM staining; format: cell-based; conditions: Homo sapiens, 168 h, Example 6, n 2
Procedure: as §1, §2
as §3, with “the cyclophilin inhibitor alisporivir and the kinase inhibitor sorafenib in” for “NV556 (10)”, “one single” for “one”, “or means of two independent experiments” for “with each cell line”, “All three” for “Both”

LIXC-004 = experiment: 7-day proliferation assay, Calcein AM staining; format: cell-based; conditions: Homo sapiens, 168 h, Example 6, n 2
Procedure: as §1, §2
as §3, with “the cyclophilin inhibitor alisporivir and the kinase inhibitor sorafenib in” for “NV556 (10)”, “one single” for “one”, “or means of two independent experiments” for “with each cell line”, “All three” for “Both”

LIXC-011 = experiment: 7-day proliferation assay, Calcein AM staining; format: cell-based; conditions: Homo sapiens, 168 h, Example 6, n 1
Procedure: as §1, §2
as §3, with “the cyclophilin inhibitor alisporivir and the kinase inhibitor sorafenib in” for “NV556 (10)”, “one single” for “one”, “or means of two independent experiments” for “with each cell line”, “All three” for “Both”

HepG2 [3] = experiment: 7-day proliferation assay, Calcein AM staining; format: cell-based; conditions: Homo sapiens, 168 h, Example 6, n 2
Procedure: as §1, §2
as §3, with “the cyclophilin inhibitor alisporivir and the kinase inhibitor sorafenib in” for “NV556 (10)”, “one single” for “one”, “or means of two independent experiments” for “with each cell line”, “All three” for “Both”

LIXC-003 = experiment: 7-day proliferation assay, Calcein AM staining; format: cell-based; conditions: Homo sapiens, 168 h, Example 6, n 2
Procedure: as §1, §2
as §3, with “the cyclophilin inhibitor alisporivir and the kinase inhibitor sorafenib in” for “NV556 (10)”, “one single” for “one”, “or means of two independent experiments” for “with each cell line”, “All three” for “Both”

[4] = read-out: Concentration giving 50% of maximum effect
[5] = Homo sapiens, 168 h, Example 6, n 2
[6] = Homo sapiens, 168 h, Example 6, n 1

Question: How did the IC50 (LIXC-002) turn out when `CC(=O)CCC1C(=O)NC(C(C)C)C(=O)NC(Cc2cc(O)cc(F)c2)C(=O)N2CCCC(N2)C(=O)OC(C(C)=CC=CC(=O)N2CCCCO2)CC=CC=CC(O)C(C)C1O` (centres unmarked) [NV556] was run?
Answer: Its IC50 is 39 nM.

Question: And the IC50 (LIXC-086; Example 5, one experiment)?
Answer: The IC50 was 9490 nM.

Question: And the IC50 (LIXC-066; Example 5, one experiment)?
Answer: Its IC50 is 244 nM.

Question: What about the IC50 (LIXC-006; Example 5, one experiment) of the same compound?
Answer: Its IC50 is 62 nM.

Question: What about the IC50 (Hep3B2.1-7-Luc; Example 5, one experiment) of the same compound?
Answer: Its IC50 is 54 nM.

Question: What about the “reduction in cell numbers, combination versus single compounds” value ([1]; combination with doxorubicin) of the same compound?
Answer: Its value is “stronger reduction in cell numbers than either compound alone”.

Question: What about the “reduction in cell numbers, combination versus single compounds” value ([1]; combination with sorafenib) of the same compound?
Answer: Its value is “stronger reduction in cell numbers than either compound alone”.

Question: What about the “Maximum inhibition (%)” value (A549) of the same compound?
Answer: Its value is 45.2%.

Question: And the EC50 (A549; [4])?
Answer: Its EC50 is 100 nM.

Question: And the “Maximum inhibition (%)” value (A375)?
Answer: Its value is 87.6%.

Question: And the EC50 (A375; [4])?
Answer: Its EC50 is 2100 nM.

Question: And the “Maximum inhibition (%)” value (RPMI 8226)?
Answer: The value was 87.1%.

Question: What about the EC50 (RPMI 8226; [4]) of the same compound?
Answer: Its EC50 is 200 nM.

Question: What about the “Maximum inhibition (%)” value (PANC-1) of the same compound?
Answer: The value was 51.0%.

Question: What about the EC50 (PANC-1; [4]) of the same compound?
Answer: Its EC50 is 1300 nM.

Question: What about the “Maximum inhibition (%)” value (U251) of the same compound?
Answer: The value was 62.0%.

Question: And the EC50 (U251; [4])?
Answer: The EC50 was 16900 nM.

Question: And the “Maximum inhibition (%)” value (HT-29)?
Answer: Its value is 56.8%.

Question: And the “Maximum inhibition (%)” value (A2780)?
Answer: The value was 83.7%.

Question: And the EC50 (A2780; [4])?
Answer: Its EC50 is 100 nM.

Question: And the “Maximum inhibition (%)” value (SK-Hep-1)?
Answer: The value was 94.6%.

Question: And the EC50 (SK-Hep-1; [4])?
Answer: Its EC50 is 100 nM.

Question: What about the “Maximum inhibition (%)” value (MDA-MB-231) of the same compound?
Answer: The value was 49.9%.

Question: What about the EC50 (MDA-MB-231; [4]) of the same compound?
Answer: The EC50 was 500 nM.

Question: And the “Maximum inhibition (%)” value (PC-3)?
Answer: Its value is 45.3%.

Question: And the EC50 (PC-3; [4])?
Answer: Its EC50 is 300 nM.

Question: And the “Maximum inhibition (%)” value (Huh-7)?
Answer: The value was 22.4%.

Question: And the EC50 (Huh-7; [4])?
Answer: The EC50 was 30 nM.

Question: And the “Maximum inhibition (%)” value (HepG2 [2])?
Answer: Its value is 80.6%.

Question: And the EC50 (HepG2 [2]; [4])?
Answer: The EC50 was 100 nM.

Question: And the “Maximum inhibition (%)” value (HCT 116)?
Answer: Its value is 88.7%.

Question: What about the EC50 (HCT 116; [4]) of the same compound?
Answer: Its EC50 is 100 nM.

Question: With `CNC(=O)c1cc(Oc2ccc(NC(=O)Nc3ccc(Cl)c(C(F)(F)F)c3)cc2)ccn1` [Sorafenib, sorafenib] as the compound, how does the IC50 (LIXC-006; [5]) read?
Answer: The IC50 was 3960 nM.

Question: What about the IC50 (LIXC-012) of the same compound?
Answer: Its IC50 is 1150 nM.

Question: What about the IC50 (LIXC-004) of the same compound?
Answer: Its IC50 is 2190 nM.

Question: And the IC50 (LIXC-011)?
Answer: The IC50 was 538 nM.

Question: What about the IC50 (HepG2 [3]) of the same compound?
Answer: The IC50 was 2960 nM.

Question: And the IC50 (LIXC-003)?
Answer: Its IC50 is 4 nM.

Question: Which results are given for `C/C=C/C[C@@H](C)[C@@H](O)[C@H]1C(=O)N[C@@H](CC)C(=O)N(C)[C@H](C)C(=O)N(CC)[C@@H](C(C)C)C(=O)N[C@@H](C(C)C)C(=O)N(C)[C@@H](CC(C)C)C(=O)N[C@@H](C)C(=O)N[C@H](C)C(=O)N(C)[C@@H](CC(C)C)C(=O)N(C)[C@@H](CC(C)C)C(=O)N(C)[C@@H](C(C)C)C(=O)N1C` [Alisporivir, alisporivir]?
Answer: IC50 (LIXC-086; [6]): 2250 nM; IC50 (LIXC-066; [6]): 1640 nM; IC50 (LIXC-006; [5]): 993 nM; IC50 (Hep3B2.1-7-Luc; [6]): 2880 nM; IC50 (LIXC-012): 3220 nM; IC50 (LIXC-004): 3810 nM; IC50 (LIXC-011): 8710 nM; IC50 (HepG2 [3]): 3130 nM; IC50 (LIXC-003): 4730 nM
